We go through three molecules from ChEMBL document CHEMBL1129822, “Thermal atropisomerism of fully functionalized vancomycin CD, DE, and CDE ring systems” (Bioorg Med Chem Lett, 1997).

What is called half-life is the time needed for the level to fall by half in the phase considered.

Format in all cases: ADME
A short description of data set [1]: Half-life at 125 degrees C in DMSO.
Data set [2] is described as follows: The equilibrium constant at 140 degrees C in DMSO.
A short description of data set [3]: The equilibrium constant at 125 degrees C in DMSO.
The nature of data set [4]: Half-life at 140 degrees C in DMSO.
Data set [5] can be described thus: The equilibrium constant at 155 degrees C in DMSO.
Data set [6] in a line: Half-life at 140 degrees C in ortho dichloro benzene. The settings on record: ortho-dichlorobenzene.
A short description of data set [7]: Half-life at 155 degrees C in DMSO.
The nature of data set [8]: The equilibrium constant at 140 in ortho dichloro benzene.

Molecules are shown by their SMILES.

`COc1c(O)cc2cc1Oc1ccc(cc1[N+](=O)[O-])[C@@H](O)[C@@H](NC(=O)OC(C)(C)C)C(=O)N[C@@H](CC(N)=O)C(=O)N[C@H]2C(=O)OC(C)(C)C`: the half-life in data set [1] is 0.28 h; in data set [4] it was 0.092 h. The k in data set [2] was 2.06 h⁻¹; in data set [3] it was 0.88 h⁻¹.

Turning to `COC(=O)[C@H]1NC(=O)[C@@H](c2ccc(OC)c(Br)c2)NC(=O)[C@H](NC(=O)OC(C)(C)C)c2cc(O)c(OC)c(c2)Oc2ccc(cc2[N+](=O)[O-])[C@H]1O[Si](C)(C)C(C)(C)C`, the results for the k in data set [5], in data set [2] and in data set [8] were 0.27 h⁻¹, 0.082 h⁻¹ and 0.029 h⁻¹, respectively. Also, the half-life in data set [6] was 9.77 h; in data set [7], 1.06 h; in data set [4], 3.52 h.

On to `COC(=O)[C@H]1NC(=O)[C@@H](c2ccc(OC)c(Br)c2)NC(=O)[C@H](NC(=O)OC(C)(C)C)c2cc(O)c(OC)c(c2)Oc2ccc(cc2Cl)[C@H]1O[Si](C)(C)C(C)(C)C`, for which the k in data set [2] was determined as 0.071 h⁻¹; in data set [8] it was 0.0054 h⁻¹. The half-life is 53 h in data set [6] and 4.03 h in data set [4].
